Measured values from patent publication US11718628B2, “SREBP inhibitors comprising a 6-membered central ring” (Capulus Therapeutics, LLC, priority 2018, dated 2023).
Values after ≈ are worked out from the molar mass of the structure shown.

What was measured:
Kinetic solubility = type: physicochemical; conditions: aqueous buffer, kinetic from dmso stock, pH 7.4 buffer, room temperature, 1.0% DMSO, read-out: I: kinetic solubility class
Method: Kinetic Solubility Procedure: A 10 mM stock solution of a compound was prepared in DMSO, then 4 μL of the stock was added to a deep well plate containing 396 μL of pH 7.4 buffer. The sample plate was vortexed at 800 rpm for 24 h on thermomixer at room temperature. The plate was sealed well during the incubation process. The DMSO content in the sample was 1.0%. The concentration of the evaluated compound in the final incubation was 100 μM. At the end of the incubation period, the sample plate was centrifuged at 4000 rpm for 10 min and analyzed in LC-UV against a calibration curve (CC). Values <10 μg/mL=Low; 10 to 60 μg/mL=Medium; >60 μg/mL=High.

[1] = Half-life in mouse liver microsomes; type: in vitro ADME; conditions: mouse, liver microsomes, read-out: H: half-life of mouse liver microsomes
Method: (§1) Half-life Human Microsomes: Compounds were evaluated for stability in human liver microsomes. A 10 mM stock solution of the compound being evaluated was prepared in DMSO and diluted with water:acetonitrile (1:1) to a concentration of 1 mM. A working concentration of 100 μM was prepared by further dilution with water:acetonitrile (1:1). To make the preincubation mixture, 2.5 μL of the diluted compound was combined with 75 μL of human liver microsomes at 3.33 mg/mL, and 85 μL of 100 mM potassium phosphate buffer, and this mixture was pre-incubated for 10 min at 37° C. To make the 60 minute mixture without cofactor, 32.5 μL of the preincubation mixture was combined with 17.5 μL of 100 mM potassium phosphate buffer and incubated for 60 min at 37° C. To make the 0 min sample with cofactor (NADPH), 16.25 μL of the preincubation mixture was combined with 200 μL of acetonitrile containing internal standard and 8.75 μL of cofactor (NADPH). To make the incubation mixture, 62 μL of cofactor (2.85 mM) was combined with the remaining incubation mixture, and incubated for 60 min at 37° C. To prepare the sample mixture to be evaluated, 25 μL incubation mixture was combined with 200 μL of acetonitrile containing internal standard and vortexed for 5 min at 1200 rpm, then centrifuged for 10 min at 4000 rpm. The supernatant was diluted 2 fold with water and injected on LC-MS/MS. The sample mixture was evaluated by LC-MS/MS using 10 mM ammonium acetate with 0.1% FA as the aqueous mobile phase, and methanol as the organic mobile phase.
Half-life Mouse Microsomes: Compounds were evaluated in mouse liver microsomes following a similar procedure as described above for human liver microsomes. A similar procedure could be used to evaluate compounds in rat liver microsomes.

[2] = Half-life in human liver microsomes; type: in vitro ADME; conditions: human, liver microsomes, NADPH, 37° C., read-out: G: half-life human liver microsomes
Method: as §1

SMILES	solubility kinetic at 24 h (Kinetic solubility) [µg/mL]	half-life at 1 µM [1] [min]	half-life at 1 µM [2] [min]
CC(C)(C)c1cc(-c2cncc(-c3ccc(C(=O)N4CCC(O)CC4)cc3Cl)c2F)ccn1	10 to 60 (≈ 21.4 to 128 µM)	39.2	9.52
O=C(c1ccc(-c2cncc(-c3ccnc4c3CCC4)c2)c(Cl)c1)N1CCC(O)CC1	10 to 60 (≈ 23 to 138 µM)	27.4	9.79
CC(C)(C)c1cc(-c2cncc(-c3ccc(NS(=O)(=O)CC(F)(F)F)cc3Cl)c2)ccn1	< 10	> 120	6.03
CC(C)(C)c1cc(-c2cncc(-c3ccc(C(=O)N4CCC(O)CC4)cc3)c2F)ccn1 [drawing 321]	10 to 60 (≈ 23.1 to 138 µM)	82.6	126
CC(C)OC(=O)Nc1ccc(-c2cncc(-c3ccnc(C4OCCO4)c3)c2)c(Cl)c1 [drawing 371]	< 10	19.2	13.5
CC(C)(C)c1cc(-c2cccc(-c3ccc(C(=O)NS(=O)(=O)C4CC4)cc3Cl)c2)ccn1	10 to 60 (≈ 21.3 to 128 µM)	66.7	12.1
CC(C)(C)c1cc(-c2cccc(-c3ccc(NC(=O)N4CCC(O)CC4)cc3Cl)c2)ccn1	< 10	400	72.1
O=C(Nc1ccc(-c2cncc(-c3ccnc4c3OCCO4)c2)c(Cl)c1)OC1CC1	< 10	16.4	9.94
O=C(c1ccc(-c2cncc(-c3ccnc(C4CC4)c3)c2)c(Cl)c1)N1CCC(O)CC1	10 to 60 (≈ 23 to 138 µM)	54.9	36.5
CC(C)OC(=O)Nc1ccc(-c2cncc(-c3ccnc(C(C)(C)C)c3)c2)c(Cl)c1 [drawing 372]	< 10	222	69.9
CC(C)(C)c1cc(-c2cc(F)cc(-c3ccc(C(=O)N4CCC(O)CC4)cc3Cl)c2)ccn1	< 10	13.6	74.6
CC1(O)CCC(C(=O)c2ccc(-c3cncc(-c4ccnc(C(C)(C)CO)c4)c3)c(Cl)c2)CC1 (stereo not drawn)	10 to 60 (≈ 20.9 to 125 µM)	63.6	10
Cc1ncc(-c2ccc(C(=O)N3CCC(O)CC3)cc2Cl)cc1-c1ccnc(C(C)(C)C)c1	10 to 60 (≈ 21.6 to 129 µM)	41.7	7.8
CC(C)(C)c1cc(-c2cccc(-c3ccc(NS(=O)(=O)CC(F)(F)F)cc3Cl)c2)ccn1	< 10	> 120	> 120
CC(C)(C)c1cc(-c2cc(-c3ccc(C(=O)N4CCC(O)CC4)cc3Cl)c3cccnc3c2)ccn1	< 10	19.3	2.07
O=C(c1ccc(-c2cncc(-c3ccnc(C4CC4)c3)c2)c(Cl)c1)N1CCC(F)C(O)C1 (stereo not drawn)	< 10	68.3	20.5
O=C(c1ccc(-c2cncc(-c3ccnc(C4CC4)c3)c2)c(Cl)c1)N1CCC[C@H]1CO	10 to 60 (≈ 23 to 138 µM)	66.7	16.2
CC(C)(C)c1cc(-c2cccc(-c3ccc(NS(=O)(=O)C(F)(F)F)cc3Cl)c2F)ccn1	10 to 60 (≈ 20.5 to 123 µM)	81.3	0.54
CC1(c2cc(-c3cncc(-c4ccc(C(=O)N5CCC(O)CC5)cc4Cl)c3)ccn2)OCCO1	10 to 60 (≈ 20.8 to 125 µM)	101	9.74
CC(C)(C)c1cc(-c2cccc(-c3ccc(NS(C)(=O)=O)cc3Cl)c2F)ccn1	< 10	206	16.4
CC(C)(C)c1cc(-c2cc(-c3ccc(C(=O)N4CCC(O)CC4)cc3Cl)c3ccncc3c2)ccn1	10 to 60 (≈ 20 to 120 µM)	108	119
CC(C)(C)c1cc(-c2cncc(-c3ccc(NS(C)(=O)=O)cc3Cl)c2)ccn1 [drawing 346]	< 10	59.6	19.8
CC(C)NS(=O)(=O)Nc1ccc(-c2cncc(-c3ccnc(C(C)(C)C)c3)c2)c(Cl)c1	10 to 60 (≈ 21.8 to 131 µM)	178	27.3
CC(C)(O)c1cc(-c2cncc(-c3ccc(NS(C)(=O)=O)cc3Cl)c2)ccn1	< 10	120	116
CC(C)OC(=O)Nc1ccc(-c2cncc(-c3ccnc(C4(F)CCC4)c3)c2)c(Cl)c1	< 10	97.9	55.9

Next, values leading:

solubility kinetic at 24 h (Kinetic solubility) [µg/mL]	half-life at 1 µM [1] [min]	half-life at 1 µM [2] [min]	SMILES
10 to 60 (≈ 20.9 to 126 µM)	47.8	6.33	CC1CC(O)CC(C)N1C(=O)c1ccc(-c2cncc(-c3ccnc(C(C)(C)C)c3)c2)c(Cl)c1 (stereo not drawn)
10 to 60 (≈ 21.4 to 128 µM)	77.5	41.3	CC(C)(CF)c1cc(-c2cncc(-c3ccc(C(=O)N4CCC(O)CC4)cc3Cl)c2)ccn1
10 to 60 (≈ 21.6 to 129 µM)	11.4	5.81	CC1(O)CCCN(C(=O)c2ccc(-c3cncc(-c4ccnc(C(C)(C)C)c4)c3)c(Cl)c2)C1 (stereo not drawn) [drawing 366]
< 10	21.3	15.4	CC(C)(C)c1cc(-c2cncc(-c3ccc(C(=O)N4CC5CCC(C4)C5O)cc3Cl)c2)ccn1 (stereo not drawn)
10 to 60 (≈ 21.5 to 129 µM)	66.5	21.8	CC(C)(C)c1cc(-c2cncc(-c3ccc(C(=O)N4CCC(O)C(O)C4)cc3Cl)c2)ccn1 (stereo not drawn) [drawing 419]
10 to 60 (≈ 21.6 to 129 µM)	30.3	13	CC1(O)CCN(C(=O)c2ccc(-c3cncc(-c4ccnc(C(C)(C)C)c4)c3)c(Cl)c2)CC1 [drawing 369]
< 10	11	11	CC(C)(C)c1cc(-c2cncc(-c3ccc(C(=O)N4CCC(F)CC4)cc3Cl)c2)ccn1
10 to 60 (≈ 22.2 to 133 µM)	28.6	5.52	CC(C)(C)c1cc(-c2cncc(-c3ccc(C(=O)N4CCC[C@H]4CO)cc3Cl)c2)ccn1
10 to 60 (≈ 20.9 to 126 µM)	27.4	16.8	CC(C)(C)c1cc(-c2cncc(-c3ccc(C(=O)N4CCC[C@H]4C(C)(C)O)cc3Cl)c2)ccn1
10 to 60 (≈ 21.6 to 129 µM)	38.3	59	CC(C)(C)c1cc(-c2cncc(-c3ccc(C(=O)N4CCC4C(C)(C)O)cc3Cl)c2)ccn1 (stereo not drawn)
10 to 60 (≈ 23.3 to 140 µM)	213	13.9	Cc1cc(C(=O)N2CCC(O)CC2)ccc1-c1cncc(-c2ccnc(C(C)(C)C)c2)c1 [drawing 337]
10 to 60 (≈ 22.9 to 138 µM)	31.5	5.01	CC(C)(C)c1cc(-c2cncc(-c3ccc(C(=O)N4CC[C@@H](O)C4)cc3Cl)c2)ccn1
< 10	> 120	19.6	CC(C)(C)c1cc(-c2cncc(-c3ccc(NC(=O)N4CCC(O)CC4)cc3Cl)c2)ccn1
10 to 60 (≈ 22.1 to 133 µM)	75.6	29.4	CC(C)(C)c1cc(-c2cncc(-c3ccc(C(=O)N4CC(O)C(O)C4)cc3Cl)c2)ccn1 (stereo not drawn)
